Results as given in patent publication US20220195384A1, “COMPOSITION FOR PROMOTING PRODUCTION OF STEM CELL-DERIVED EXOSOMES AND INCREASING STEMNESS” (BREXOGEN INC., priority 2019, published 2022).

Assays:
Type in all cases: cell-based
[1] = tested on: primary umbilical cord-derived mesenchymal stem cells; assay: Stem cell proliferation (CCK, absorbance 450 nm) after pretreatment; settings: 24 h culture, CCK 4 h
Method: (§1) In a culture medium [high glucose DMEM (Gibco, Cat no. 11995-065); 10% fetal bovine serum (HyClone), 1% MEM non-essential amino acids solution (100×) (Gibco, Cat no. 11140-050)] containing 20 nM of exendin-4, primary umbilical cord-derived mesenchymal stem cells (ATCC No. PCS-500-010; Lot No. 63822428) were cultured for one week.
as §1, with “10” for “20”, “PMA,” for “exendin-4,”
as §1, with “10 ng/mL interferon-γ,” for “20 nM of exendin-4,”
as §1, with “10 μM” for “20 nM”, “tetrandrine,” for “exendin-4,”
as §1, with “10 μg/mL hyaluronic acid,” for “20 nM of exendin-4,”
as §1, with “30” for “20”, “substance P,” for “exendin-4,”
as §1, with “10” for “20”, “resveratrol,” for “exendin-4,”
as §1, with “10 μM” for “20 nM”, “lanifibranor,” for “exendin-4,”
(§2) Mesenchymal stem cells and the exendin-4-pretreated mesenchymal stem cells of the Example were each seeded at a density of 3,000 cells/well into 96-well plates containing 100 μL of a culture medium [high glucose DMEM (Gibco, Cat no. 11995-065), 10% fetal bovine serum (HyClone), 1% MEM non-essential amino acids solution (100×) (Gibco, Cat no. 11140-050)] per well and cultured for 24 hours in a CO2 incubator. Then, CCK solution (10 μL/well) was added, and incubation was continued for 4 hours in the CO2 incubator, followed by reading absorbance at a wavelength of 450 nm (420-480 nm) to determine proliferation.
as §2, with “PMA-pretreated” for “exendin-4-pretreated”, “proliferation. […]” for “proliferation.”

[2] = tested on: primary umbilical cord-derived mesenchymal stem cells; assay: Stem cell stemness: colony formation (CFU-F, crystal violet) after pretreatment; settings: for colonies formed (each 50 or more cells): 1,000 cells/dish, 21 days; for CFU-F increase: vs non-treated
Method: as §1
as §1, with “10” for “20”, “PMA,” for “exendin-4,”
as §1, with “10 ng/mL interferon-γ,” for “20 nM of exendin-4,”
as §1, with “10 μM” for “20 nM”, “tetrandrine,” for “exendin-4,”
as §1, with “10 μg/mL hyaluronic acid,” for “20 nM of exendin-4,”
as §1, with “30” for “20”, “substance P,” for “exendin-4,”
as §1, with “10” for “20”, “resveratrol,” for “exendin-4,”
as §1, with “10 μM” for “20 nM”, “lanifibranor,” for “exendin-4,”
Mesenchymal stem cells and the exendin-4-pretreated mesenchymal stem cells of the Example were each seeded at a density of 1,000 cells/dish into 100-mm cell culture dishes containing […] of a culture medium [high glucose DMEM (Gibco, Cat no. 11995-065), 10% fetal bovine serum (HyClone), 1% MEM non-essential amino acids solution (100×) (Gibco, Cat no. 11140-050)] per dish and cultured for 21 days. The cell-attached dishes were washed twice with PBS, followed by fixation with 95% methanol at room temperature for about 2 min. The fixed cells were washed three times with PBS and stained with 0.5% crystal violet [(sigma, C-3886, USA) […], methanol 100 ml] for 5 min. After water washing and drying at room temperature, colonies, each composed of 50 or more cells, were counted for comparison.
Mesenchymal stem cells and the PMA-pretreated mesenchymal stem cells of the Example were each seeded at a density of 1,000 cells/dish into 100-mm cell culture dishes containing […] of a culture medium [high glucose DMEM (Gibco, Cat no. 11995-065), 10% fetal bovine serum (HyClone), 1% MEM non-essential amino acids solution (100×) (Gibco, Cat no. 11140-050)] per dish and cultured for 21 days. The cell-attached dishes were washed twice with PBS, followed by fixation with 95% methanol at room temperature for about 2 min. […]

[3] = tested on: primary umbilical cord-derived mesenchymal stem cells; assay: Number of exosomes by nanoparticle tracking assay (NanoSight NS300); settings: for No. of exosome particles, yield per 10^6 cells: then 72 h exosome-free FBS medium
Method: as §1
(§3) After completion of culturing, the mesenchymal stem cells pretreated with exendin-4 were washed and additionally cultured for 72 hours in a culture medium supplemented with 10% fetal bovine serum (FBS) free of exosomes. The reason of employing exosome-free FBS was to prevent FBS-derived exosomes other than those secreted from the cells from being incorporated because generally used FBS contained a large amount of exosomes derived from bovine serum.
(§4) After 72 hours of culturing, the culture medium in which the pretreated mesenchymal stem cells were cultured was taken and centrifuged at 300×g for 10 min to remove residual cells and cell debris. The supernatant was filtered through a 0.22 μm filter, followed by centrifugation at 10,000×g and 4° C. for 70 min in a high-speed centrifuge. The supernatant thus obtained was subjected again to ultracentrifugation at 100,000×g and 4° C. for 90 min. The exosomes obtained as a pellet were diluted in PBS (phosphate buffered saline) before use in the following experiments.
as §1, with “10” for “20”, “PMA,” for “exendin-4,”
as §3, with “PMA” for “exendin-4”
as §1, with “10 ng/mL interferon-γ,” for “20 nM of exendin-4,”
as §3, with “interferon-γ” for “exendin-4”
as §1, with “10 μM” for “20 nM”, “tetrandrine,” for “exendin-4,”
as §3, with “tetrandrine” for “exendin-4”, “serum. […]” for “serum.”

[4] = tested on: primary umbilical cord-derived mesenchymal stem cells; assay: Content of exosomal protein (Bradford analysis, 595 nm); settings: for Exosomal protein, yield per 10^6 cells: then 72 h exosome-free FBS medium, non-treated 2.0
Method: as §1, §3, §4
as §1, with “10” for “20”, “PMA,” for “exendin-4,”
as §3, with “PMA” for “exendin-4”
as §1, with “10 ng/mL interferon-γ,” for “20 nM of exendin-4,”
as §3, with “interferon-γ” for “exendin-4”
as §1, with “10 μM” for “20 nM”, “tetrandrine,” for “exendin-4,”
as §3, with “tetrandrine” for “exendin-4”, “serum. […]” for “serum.”

[5] = tested on: primary umbilical cord-derived mesenchymal stem cells; assay: Content of exosomal RNA (NanoDrop); settings: for Exosomal RNA, yield per 10^6 cells: then 72 h exosome-free FBS medium
Method: as §1, §3, §4
as §1, with “10” for “20”, “PMA,” for “exendin-4,”
as §3, with “PMA” for “exendin-4”
as §1, with “10 ng/mL interferon-γ,” for “20 nM of exendin-4,”
as §3, with “interferon-γ” for “exendin-4”
as §1, with “10 μM” for “20 nM”, “tetrandrine,” for “exendin-4,”
as §3, with “tetrandrine” for “exendin-4”, “serum. […]” for “serum.”

[6] = 10 nM PMA pretreatment one week
[7] = 10 μM lanifibranor pretreatment one week
[8] = 10 nM resveratrol pretreatment one week
[9] = 10 μM tetrandrine pretreatment one week

`CCCCCCCCCCCCCC(=O)O[C@@H]1[C@@H](C)[C@@]2(O)[C@@H](C=C(CO)C[C@]3(O)C(=O)C(C)=C[C@@H]23)[C@@H]2C(C)(C)[C@]12OC(C)=O` [PMA, phorbol 12-myristate 13-acetate] was tested, and the “increase in proliferation relative to non-treated mesenchymal stem cells” value [1, 6] was “about 220%”, the “proliferation ratio relative to non-treated mesenchymal stem cells (1)” value [1, 6] was 2.2 and the “colonies formed (each 50 or more cells)” value ([2]; 10 nM PMA pretreatment one week, non-treated 28.6) was 285.7 colonies. The CFU-F increase [2, 6] was “about 996.5%”, the “fold more exosomes than non-treated mesenchymal stem cells” value [3, 6] was “about 5.2 fold” and the “No. of exosome particles, yield per 10^6 cells” value ([3]; 10 nM PMA pretreatment one week, non-treated 2.3) was 11.90 10^9. The “fold greater exosomal proteins than non-treated mesenchymal stem cells” value [4, 6] was “about 5 fold”, the “Exosomal protein, yield per 10^6 cells” value [4, 6] was 10.0 ug and the “fold greater exosomal RNA than non-treated mesenchymal stem cells” value [5, 6] was “about 4 fold”. For the same compound, the “Exosomal RNA, yield per 10^6 cells” value ([5]; 10 nM PMA pretreatment one week, non-treated 31.0) was 125.0 ng.

For `O=C(O)CCCc1cc2cc(Cl)ccc2n1S(=O)(=O)c1ccc2ncsc2c1` [lanifibranor], the “increase in proliferation relative to non-treated mesenchymal stem cells” value [1, 7] was “about 181%”, the “proliferation ratio relative to non-treated mesenchymal stem cells (1)” value [1, 7] was 1.81 and the “colonies formed (each 50 or more cells)” value ([2]; 10 μM lanifibranor pretreatment one week, non-treated 40) was 56.7 colonies. For the same compound, the CFU-F increase [2, 7] was “about 142%”, the “fold more exosomes than non-treated mesenchymal stem cells” value [3, 7] was “about 4.95 fold” and the “No. of exosome particles, yield per 10^6 cells” value ([3]; 10 μM lanifibranor pretreatment one week, non-treated 2.30) was 11.4 10^9. The “fold greater exosomal proteins than non-treated mesenchymal stem cells” value [4, 7] was “about 4.6 fold”, the “Exosomal protein, yield per 10^6 cells” value [4, 7] was 9.2 ug and the “fold greater exosomal RNA than non-treated mesenchymal stem cells” value [5, 7] was “about 4.1 fold”. For the same compound, the “Exosomal RNA, yield per 10^6 cells” value ([5]; 10 μM lanifibranor pretreatment one week, non-treated 27.00) was 110.34 ng.

In the case of `Oc1ccc(C=Cc2cc(O)cc(O)c2)cc1` [resveratrol], the “increase in proliferation relative to non-treated mesenchymal stem cells” value [1, 8] is reported as “about 322%”, the “proliferation ratio relative to non-treated mesenchymal stem cells (1)” value [1, 8] is reported as 3.22 and the “colonies formed (each 50 or more cells)” value ([2]; 10 nM resveratrol pretreatment one week, non-treated 28.6) is reported as 311 colonies. For the same compound, the CFU-F increase [2, 8] was “about 1,087%”, the “fold more exosomes than non-treated mesenchymal stem cells” value [3, 8] was “about 5.2 fold” and the “No. of exosome particles, yield per 10^6 cells” value ([3]; 10 nM resveratrol pretreatment one week, non-treated 2.3) was 11.9 10^9. The “fold greater exosomal proteins than non-treated mesenchymal stem cells” value [4, 8] was “about 5.4 fold”, the “Exosomal protein, yield per 10^6 cells” value [4, 8] was 10.78 ug and the “fold greater exosomal RNA than non-treated mesenchymal stem cells” value [5, 8] was “about 4.7 fold”. For the same compound, the “Exosomal RNA, yield per 10^6 cells” value ([5]; 10 nM resveratrol pretreatment one week, non-treated 31.0) was 145.15 ng.

In the case of `COc1ccc2cc1Oc1ccc(cc1)C[C@H]1c3cc(c(OC)cc3CCN1C)Oc1c(OC)c(OC)cc3c1[C@H](C2)N(C)CC3` [tetrandrine], the “increase in proliferation relative to non-treated mesenchymal stem cells” value [1, 9] is reported as “about 260%”, the “proliferation ratio relative to non-treated mesenchymal stem cells (1)” value [1, 9] is reported as 2.6 and the “colonies formed (each 50 or more cells)” value ([2]; 10 μM tetrandrine pretreatment one week, non-treated 28.7) is reported as 121.3 colonies. The CFU-F increase [2, 9] was “about 423%”, the “fold more exosomes than non-treated mesenchymal stem cells” value [3, 9] was “about 4.3 fold” and the “No. of exosome particles, yield per 10^6 cells” value ([3]; 10 μM tetrandrine pretreatment one week, non-treated 2.3) was 9.84 10^9. For the same compound, the “fold greater exosomal proteins than non-treated mesenchymal stem cells” value [4, 9] was “about 4.5 fold”, the “Exosomal protein, yield per 10^6 cells” value [4, 9] was 9.42 ug and the “fold greater exosomal RNA than non-treated mesenchymal stem cells” value [5, 9] was “about 4.4 fold”. For the same compound, the “Exosomal RNA, yield per 10^6 cells” value ([5]; 10 μM tetrandrine pretreatment one week, non-treated 31.0) was 136.0 ng.
